Results from patent publication US8871753B2, “Macrocyclic compounds and their use as kinase inhibitors” (Incyte Corporation, priority 2008, dated 2014).
Where a name gives a salt, the structure may show the parent alone. Read-outs that look alike come from different tables or passages of the source.

Key:
Assay type in all cases: biochemical
[1] = molecular target: T1, human JAK1 (a.a. 837-1142) (Homo sapiens, UniProt P23458); test: In vitro JAK kinase assay (HTRF, phosphorylation of a biotinylated peptide), JAK1; settings: read-out: JAK1 IC50
T1 construct: human JAK1 (a.a. 837-1142); His tag (N); made in house; host or cells: insect cells (baculovirus)
T1 sequence (P23458 849-1154): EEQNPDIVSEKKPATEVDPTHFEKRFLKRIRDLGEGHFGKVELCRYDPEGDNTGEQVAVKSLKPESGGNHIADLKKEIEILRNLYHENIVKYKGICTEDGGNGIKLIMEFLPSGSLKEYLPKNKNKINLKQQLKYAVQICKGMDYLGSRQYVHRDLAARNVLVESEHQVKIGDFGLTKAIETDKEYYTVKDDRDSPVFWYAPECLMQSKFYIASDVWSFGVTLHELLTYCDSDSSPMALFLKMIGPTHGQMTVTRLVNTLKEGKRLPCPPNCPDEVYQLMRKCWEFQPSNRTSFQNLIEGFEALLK
How it was run: (§1)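 Phosphorylation of a biotinylated peptide by the JAK kinase domain, detected by HTRF with Eu-Py20 and SA-APC. ATP was 90 μM for JAK1, 30 μM for JAK2 and 3 μM for JAK3. Reactions ran 1 h at room temperature and were stopped with EDTA, followed by 40 min antibody binding.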

[2] = molecular target: T2, human JAK2 (a.a. 828-1132) (Homo sapiens, UniProt O60674); test: In vitro JAK kinase assay (HTRF, phosphorylation of a biotinylated peptide), JAK2
T2 construct: JAK2 (a.a. 828-1132); His tag (N); made in house; host or cells: insect cells (baculovirus)
T2 sequence (O60674 828-1132): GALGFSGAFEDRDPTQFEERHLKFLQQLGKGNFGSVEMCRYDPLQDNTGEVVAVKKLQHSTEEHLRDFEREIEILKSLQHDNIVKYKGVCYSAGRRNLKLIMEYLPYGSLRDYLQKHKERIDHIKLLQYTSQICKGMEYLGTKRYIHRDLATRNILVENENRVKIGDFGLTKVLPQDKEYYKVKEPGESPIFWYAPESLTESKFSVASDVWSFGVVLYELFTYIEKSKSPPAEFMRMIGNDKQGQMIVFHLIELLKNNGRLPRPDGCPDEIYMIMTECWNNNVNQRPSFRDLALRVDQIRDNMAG
How it was run: as §1

[3] = molecular target: T3, human JAK3 (a.a. 781-1124) (Homo sapiens, UniProt P52333); test: In vitro JAK kinase assay (HTRF, phosphorylation of a biotinylated peptide), JAK3
T3 construct: JAK3 (a.a. 781-1124); His tag (N); made in house; host or cells: insect cells (baculovirus)
T3 sequence (P52333 781-1124): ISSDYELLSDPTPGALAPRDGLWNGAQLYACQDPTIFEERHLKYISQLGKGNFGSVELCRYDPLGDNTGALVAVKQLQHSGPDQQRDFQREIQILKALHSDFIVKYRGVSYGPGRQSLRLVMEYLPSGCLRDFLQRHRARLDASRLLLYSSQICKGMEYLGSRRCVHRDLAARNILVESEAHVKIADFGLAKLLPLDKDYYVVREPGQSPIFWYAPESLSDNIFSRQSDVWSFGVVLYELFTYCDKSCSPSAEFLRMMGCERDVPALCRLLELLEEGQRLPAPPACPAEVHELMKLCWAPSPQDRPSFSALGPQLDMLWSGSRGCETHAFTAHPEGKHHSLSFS
How it was run: as §1

[4] = molecular target: TYK2 (Homo sapiens, UniProt P29597); test: TYK2 kinase inhibition (Table A1)
TYK2, sequence (P29597 whole entry): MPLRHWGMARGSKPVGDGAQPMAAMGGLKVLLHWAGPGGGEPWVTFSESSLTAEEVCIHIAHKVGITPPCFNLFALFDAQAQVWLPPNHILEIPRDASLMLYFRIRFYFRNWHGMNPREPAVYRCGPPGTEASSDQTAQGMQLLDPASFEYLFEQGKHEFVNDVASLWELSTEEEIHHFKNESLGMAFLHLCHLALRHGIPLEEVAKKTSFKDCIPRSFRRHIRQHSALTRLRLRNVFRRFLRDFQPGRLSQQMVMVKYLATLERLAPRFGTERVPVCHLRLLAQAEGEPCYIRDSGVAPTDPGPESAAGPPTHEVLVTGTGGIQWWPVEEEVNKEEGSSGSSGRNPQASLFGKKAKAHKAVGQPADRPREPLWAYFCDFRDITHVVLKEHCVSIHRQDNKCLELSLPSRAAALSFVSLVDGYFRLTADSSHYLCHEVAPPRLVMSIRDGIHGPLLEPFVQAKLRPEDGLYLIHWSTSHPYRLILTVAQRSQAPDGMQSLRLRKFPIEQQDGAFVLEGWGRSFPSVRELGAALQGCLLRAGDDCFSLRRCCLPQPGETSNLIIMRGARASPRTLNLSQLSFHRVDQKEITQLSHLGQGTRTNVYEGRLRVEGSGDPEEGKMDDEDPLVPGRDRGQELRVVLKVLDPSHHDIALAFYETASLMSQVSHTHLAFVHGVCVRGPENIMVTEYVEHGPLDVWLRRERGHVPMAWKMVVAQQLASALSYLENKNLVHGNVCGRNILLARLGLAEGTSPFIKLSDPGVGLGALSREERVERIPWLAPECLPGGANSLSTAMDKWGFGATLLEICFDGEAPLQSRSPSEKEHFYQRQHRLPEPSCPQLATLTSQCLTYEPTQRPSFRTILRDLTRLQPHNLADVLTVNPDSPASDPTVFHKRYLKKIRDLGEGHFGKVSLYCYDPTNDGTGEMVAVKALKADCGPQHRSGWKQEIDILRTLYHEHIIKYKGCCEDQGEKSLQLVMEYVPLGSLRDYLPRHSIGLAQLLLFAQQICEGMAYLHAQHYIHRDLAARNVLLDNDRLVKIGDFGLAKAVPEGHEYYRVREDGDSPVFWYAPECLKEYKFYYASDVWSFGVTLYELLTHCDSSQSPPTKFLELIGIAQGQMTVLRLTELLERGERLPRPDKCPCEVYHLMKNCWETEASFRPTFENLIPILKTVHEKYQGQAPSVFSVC

[5] = molecular target: T4, Recombinant Human Anaplastic Lymphoma Kinase (Homo sapiens, UniProt Q9UM73); test: ALK HTRF kinase assay
T4 construct: purchased Invitrogen, Carlsbad, Calif
T4 sequence (Q9UM73 19-1620): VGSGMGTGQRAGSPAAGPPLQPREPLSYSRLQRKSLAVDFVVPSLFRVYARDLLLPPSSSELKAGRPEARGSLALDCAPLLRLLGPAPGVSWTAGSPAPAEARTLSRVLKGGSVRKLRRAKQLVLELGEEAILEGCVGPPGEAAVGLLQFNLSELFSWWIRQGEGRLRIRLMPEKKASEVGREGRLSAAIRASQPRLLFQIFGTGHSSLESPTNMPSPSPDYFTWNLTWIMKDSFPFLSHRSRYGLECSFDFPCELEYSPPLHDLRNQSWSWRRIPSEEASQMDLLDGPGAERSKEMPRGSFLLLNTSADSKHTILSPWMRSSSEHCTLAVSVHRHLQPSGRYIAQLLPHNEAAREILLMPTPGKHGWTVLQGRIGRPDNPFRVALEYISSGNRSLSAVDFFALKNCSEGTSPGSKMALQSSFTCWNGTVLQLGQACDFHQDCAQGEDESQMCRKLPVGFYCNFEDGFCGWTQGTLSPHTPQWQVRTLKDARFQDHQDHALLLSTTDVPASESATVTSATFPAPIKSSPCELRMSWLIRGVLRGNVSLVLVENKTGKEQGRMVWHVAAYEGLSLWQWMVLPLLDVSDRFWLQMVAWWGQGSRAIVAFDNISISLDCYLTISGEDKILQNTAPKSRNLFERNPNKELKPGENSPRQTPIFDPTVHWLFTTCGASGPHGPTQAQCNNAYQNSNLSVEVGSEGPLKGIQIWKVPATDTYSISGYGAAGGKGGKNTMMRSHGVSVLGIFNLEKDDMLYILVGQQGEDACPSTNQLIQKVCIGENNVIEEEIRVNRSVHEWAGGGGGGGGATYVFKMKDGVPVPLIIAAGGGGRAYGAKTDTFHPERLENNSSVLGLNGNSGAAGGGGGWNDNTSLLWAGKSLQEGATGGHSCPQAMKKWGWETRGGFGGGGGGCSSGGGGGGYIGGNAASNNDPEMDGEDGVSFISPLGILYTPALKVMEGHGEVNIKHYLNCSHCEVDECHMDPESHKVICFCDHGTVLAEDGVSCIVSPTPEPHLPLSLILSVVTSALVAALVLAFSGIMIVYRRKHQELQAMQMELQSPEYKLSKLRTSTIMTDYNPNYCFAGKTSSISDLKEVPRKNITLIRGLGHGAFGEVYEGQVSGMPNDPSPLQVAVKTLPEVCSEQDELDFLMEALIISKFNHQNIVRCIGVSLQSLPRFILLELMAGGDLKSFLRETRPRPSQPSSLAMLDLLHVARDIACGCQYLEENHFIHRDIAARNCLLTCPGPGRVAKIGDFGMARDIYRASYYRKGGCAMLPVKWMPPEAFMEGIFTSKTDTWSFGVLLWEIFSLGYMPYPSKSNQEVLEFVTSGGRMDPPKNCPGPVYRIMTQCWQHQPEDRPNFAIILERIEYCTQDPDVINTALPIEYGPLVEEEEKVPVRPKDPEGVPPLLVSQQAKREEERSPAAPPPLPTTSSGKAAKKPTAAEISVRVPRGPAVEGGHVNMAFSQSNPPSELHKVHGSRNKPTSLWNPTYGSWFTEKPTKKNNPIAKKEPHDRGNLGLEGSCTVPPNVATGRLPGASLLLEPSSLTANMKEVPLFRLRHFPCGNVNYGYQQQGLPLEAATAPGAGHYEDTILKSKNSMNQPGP
How it was run: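 Recombinant human ALK with biotinylated peptide substrate; phosphorylation detected by HTRF using Eu-labelled anti-phosphotyrosine antibody and streptavidin-allophycocyanin. IC50 from a sigmoidal fit with Hill slope.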

[6] = Table B1, cells without percent sign
[7] = method AA1 (90 μM ATP) or AA2 (1000 μM ATP), not stated per value
[8] = method AA1 (30 μM ATP) or AA2 (1000 μM ATP), not stated per value
[9] = method AA1 (3 μM ATP) or AA2 (1000 μM ATP), not stated per value
[10] = compound at 500 nM or 1 mM, 90 μM ATP
[11] = percentage inhibition of the example compound at a concentration of 500 nM or 1 mM (not specified which)
[12] = compound at a concentration of 500 nM or 1 mM (not specified), cells shown as percentage

SMILES | IC50 ([1]; Table B1) [nM] | IC50 ([2]; Table B1) [nM] | IC50 ([3]; Table B1) [nM] | IC50 ([4]; Table B1) [nM] | IC50 [1, 7] [nM] | IC50 [2, 8] [nM] | IC50 [3, 9] [nM] | IC50 [4] [nM] | ALK % of inhibition at a concentration of 500 nM or 1 mM [5, 10] [%] | other results
COC(=O)c1cc2cc(c1)Nc1nc(ncc1Cl)Nc1cccc(c1)CC2 [Example B5, Methyl 6-chloro-2,4,8,22-tetraazatetracyclo[14.3.1.1(3,7).1(9,13)]docosa-1(20),3(22),4,6,9(21),10,12,16,18-nonaene-11-carboxylate trifluoroacetate] | 107 | 44 | 83 | 165 |  |  |  |  |  | IC50 [5, 6]: > 1000 nM
O=C(CCC1CCNCC1)Nc1ccc2cc1CCc1cncc(c1)Nc1ncc(Cl)c(n1)N2 [Example A117, N-[6-Chloro-2,4,8,18,22-pentaaazatetracyclo[14.3.1.1(3,7).1(9,13)]docosa-1(20),3(22),4,6,9(21),10,12,16,18-nonaen-12-yl]-3piperidin-4-ylpropanamide tris(trifluoroacetate)] |  |  |  |  | 10 | 29 | 160 | 44 | 25 | 
Cc1ncoc1C(=O)N1CCC(CN(C)Cc2ccc3cc2CCc2cncc(c2)Nc2ncc(Cl)c(n2)N3)CC1 [Example B347, 1-[6-Chloro-2,4,8,18,22-pentaazatetracyclo[14.3.1.1(3,7).1(9,13)]docosa-1(20),3(22),4,6,9(21),10,12,16,18-nonaen-12-yl]-N-methyl-N-({1-[(4-methyl-1,3-oxazol-5-yl)carbonyl]piperidin-4-yl}methyl)methanamine tris(trifluoroacetate)] | 58 | 371 | > 400 | > 400 |  |  |  |  |  | ALK % of inhibition at a concentration of 500 nM or 1 mM [5, 11]: 45%
Cc1ncsc1C(=O)N1CCC(CC(=O)Nc2ccc3cc2CCc2cncc(c2)Nc2ncc(Cl)c(n2)N3)CC1 [Example A216, N-[6-Chloro-2,4,8,18,22-pentaazatetracyclo[14.3.1.1(3,7).1(9,13)]docosa-1(20),3(22),4,6,9(21),10,12,16,18-nonaen-12-yl]-2-{1-[(4-methyl-1,3-thiazol-5-yl)carbonyl]piperidin-4-yl}acetamide bis(trifluoroacetate)] |  |  |  |  | 80 | > 200 | > 200 | > 200 | 29 | 
CC(C)(C)OC(=O)N1CCC(C(=O)Nc2ccc3cc2CCc2cccc(c2)Nc2ncc(Cl)c(n2)N3)CC1 [Example A27, tert-Butyl 4-({[6-chloro-2,4,8,22-tetraazatetracyclo[14.3.1.1(3,7).1(9,13)]docosa-1(20),3(22),4,6,9(21),10,12,16,18-nonaen-12-yl]amino}carbonyl)piperidine-1-carboxylate trifluoroacetate] |  |  |  |  | 61 | 56 | 124 | 43 | 21 | 
Cc1nc(S(=O)(=O)Nc2cc3cc(c2)OCCSc2cccc(c2)Nc2nc(ncc2Cl)N3)cn1C [Example D69, N-[6-Chloro-17-oxa-14-thia-2,4,8,24-tetraazatetracyclo[16.3.1.1(3,7).1(9,13)]tetracosa-1(22),3(24),4,6,9(23),10,12,18,20-nonaen-20-yl]-1,2-dimethyl-1H-imidazole-4-sulfonamide bis(trifluoroacetate)] |  |  |  |  |  |  |  |  |  | IC50 ([1]; Table D1): 3.5 nM; IC50 ([2]; Table D1): 1.4 nM; IC50 ([3]; Table D1): 8.6 nM; IC50 ([4]; Table D1): 8.4 nM; IC50 ([5]; Table D1, 90 μM ATP): 160 nM
O=C(NCc1ccncc1)Nc1ccc2cc1CCc1cccc(c1)Nc1ncc(Cl)c(n1)N2 [Example B246, N-[6-Chloro-2,4,8,22-tetraazatetracyclo[14.3.1.1(3,7).1(9,13)]docosa-1(20),3(22),4,6,9(21),10,12,16,18-nonaen-12-yl]-N′-(pyridin-4-ylmethyl)ureabis(trifluoroacetate)] | 12 | 25 | 21 | 3.4 |  |  |  |  |  | ALK % of inhibition at a concentration of 500 nM or 1 mM [5, 12]: 23%
Cc1cc(N2CCOCC2)c2cc1Nc1ncc(Cl)c(n1)Nc1cccc(c1)CC2 [Example A6, 6-Chloro-19-methyl-17-morpholin-4-yl-2,4,8,22-tetraazatetracyclo[14.3.1.1(3,7).1(9,13)]docosa-1(20),3(22),4,6,9(21),10,12,16,18-nonaene trifluoroacetate] |  |  |  |  | 700 | 8.7 | 802 | 76 |  | IC50 ([5]; 90 μM ATP): 497 nM
CCS(=O)(=O)NCCNC(=O)Nc1ccc2cc1CCc1cccc(c1)Nc1ncc(Cl)c(n1)N2 [Example B325, N-{2-[({[6-Chloro-2,4,8,22-tetraazatetracyclo[14.3.1.1(3,7).1(9,13)]docosa-1(20),3(22),4,6,9(21),10,12,16,18-nonaen-12-yl]amino}carbonyl)amino]ethyl}ethanesulfonamide trifluoroacetate] | 2 | 1.6 | 6.4 | 5.5 |  |  |  |  |  | ALK % of inhibition at a concentration of 500 nM or 1 mM [5, 11]: 19%
CC(C)C(=O)N1CCC(CC(=O)Nc2ccc3cc2CCc2cccc(c2)Nc2ncc(Cl)c(n2)N3)CC1 [Example A89, N-[6-Chloro-2,4,8,22-tetraazatetracyclo[14.3.1.1(3,7).1(9,13)]docosa-1(20),3(22),4,6,9(21),10,12,16,18-nonaen-12-yl]-2-(1-isobutyrylpiperidin-4-yl)acetamide trifluoroacetate] |  |  |  |  | 6.5 | 3.7 | 57 | 3 | 29 | 
CC(C)c1oncc1C(=O)N1CCC(CC(=O)Nc2ccc3cc2CCc2cncc(c2)Nc2ncc(Cl)c(n2)N3)CC1 [Example A218, N-[6-Chloro-2,4,8,18,22-pentaazatetracyclo[14.3.1.1(3,7).1(9,13)]docosa-1(20),3(22),4,6,9(21),10,12,16,18-nonaen-12-yl]-2-{1-[(5-isopropylisoxazol-4-yl)carbonyl]piperidin-4-yl}acetamide bis(trifluoroacetate)] |  |  |  |  | 74 | > 200 | > 200 | > 200 | 26 | 
Cn1ccc2c(NC(=O)Nc3ccc4cc3CCc3cccc(c3)Nc3ncc(Cl)c(n3)N4)cccc21 [Example B125, N-[6-Chloro-2,4,8,22-tetraazatetracyclo[14.3.1.1(3,7).1(9,13)]docosa-1(20), 3(22),4,6,9(21),10,12,16,18-nonaen-12-yl]-N′-(1-methyl-1H-indol-4-yl)urea trifluoroacetate] | 2.8 | 10 | 76 | 30 |  |  |  |  |  | ALK % of inhibition at a concentration of 500 nM or 1 mM [5, 12]: 34%
O=C(CC1CCN(c2nncs2)CC1)Nc1ccc2cc1CCc1cncc(c1)Nc1ncc(Cl)c(n1)N2 [Example A174, tris(trifluoroacetate)] |  |  |  |  | 4.1 | 124 | > 1000 | 72 | 33 | 
N#Cc1cccc(NC(=O)Nc2ccc3cc2CCc2cccc(c2)Nc2ncc(Cl)c(n2)N3)c1 [Example B95, N-[6-Chloro-2,4,8,22-tetraazatetracyclo[14.3.1.1(3,7).1(9,13)]docosa-1(20), 3(22),4,6,9(21),10,12,16,18-nonaen-12-yl]-N′-(3-cyanophenyl)urea trifluoroacetate] | 2.1 | 4.1 | 67 | 7.8 |  |  |  |  |  | IC50 [5, 6]: > 1000 nM
O=C(CC1CCN(C(=O)c2cnccn2)CC1)Nc1ccc2cc1CCc1cncc(c1)Nc1ncc(Cl)c(n1)N2 [Example A102, N-[6-Chloro-2,4,8,18,22-pentaazatetracyclo[14.3.1.1(3,7).1(9,13)]docosa-1(20),3(22),4,6,9(21),10,12,16,18-nonaen-12-yl]-2-[1-(pyrazin-2-ylcarbonyl)piperidin-4-yl]acetamide tris(trifluoroacetate)] |  |  |  |  | 10 | 20 | 170 | 19 | 21 | 
CC(=O)N1CCN(c2ccc(-c3cc4cc(c3)Nc3ncc(Cl)c(n3)Nc3cccc(c3)OCC4)cn2)CC1 [Example D37, 19-[6-(4-Acetylpiperazin-1-yl)pyridin-3-yl]-6-chloro-14-oxa-2,4,8,23-tetraazatetracyclo[15.3.1.1(3,7).1(9,13)]tricosa-1(21),3(23),4,6,9(22),10,12,17,19-nonaene tris(trifluoroacetate)] |  |  |  |  |  |  |  |  |  | IC50 ([1]; Table D1): 0.9 nM; IC50 ([2]; Table D1): 0.7 nM; IC50 ([3]; Table D1): 9.9 nM; IC50 ([4]; Table D1): 1.4 nM; IC50 ([5]; Table D1, 90 μM ATP): 248 nM
